Laboratory results: patent US12193328B2, “Aromatic compounds and use thereof for formation of molecular layers and fabrication of switching elements for memristive devices” (MERCK PATENT GMBH, priority 2019, dated 2025)
Where two headings read alike, the source gives them in different places.

Assay: Comparative solubility test in various solvents
Assay type: physicochemical
Conditions: 1 mM concentration, 23° C., stirred 18 h, visually inspected; for solubility at 18 h: organic solvent or mixture, thermodynamic from solid
Procedure: Comparative Solubility Test
The comparative solubilities of the following Reference Compound 1 (reference from DE102017005884):
[drawing 83] and of Synthesis Example 1 in various solvents at 1 mM concentration at 23° C. are experimentally determined. The sample is stirred for 18 h at 23° C. and then visually inspected. In the table below the expression “soluble” means that after 18 h a clear solution is obtained. “Not soluble” means that remaining solid is observed.

[1] = 1-Methoxy-2-propanol acetate, read-out: Solubility in 1-methoxy-2-propanol acetate
[2] = Cyclohexanone, read-out: Solubility in cyclohexanone

Structure (SMILES): CCCCCC1CCC(c2ccc(OCCCCCCCCCCCP(=O)(O)O)c(F)c2F)CC1 (centres unmarked) [Reference 1, 11-[2,3-difluoro-4-(4-pentylcyclohexyl)phenoxy]undecylphosphonic acid, reference compound]
- Solubility in chloroform: Soluble
- Solubility in THF: Soluble
- Solubility in toluene (Toluene): Soluble
- solubility at 18 h [1]: < 1000 µM
- solubility at 18 h [2]: < 1000 µM
- solubility at 18 h (Ethyl acetate, read-out: Solubility in ethyl acetate): < 1000 µM

Structure (SMILES): CCCCC[C@H]1CC[C@H](c2ccc(Oc3c(C)cc(P(=O)(O)O)cc3C)c(F)c2F)CC1 [Synthesis Example 1, [4-[2,3-difluoro-4-(4-pentylcyclohexyl)phenoxy]-3,5-dimethyl-phenyl]phosphonic acid]
- Solubility in 1-methoxy-2-propanol acetate (1-Methoxy-2-propanol acetate): Soluble
- Solubility in chloroform: Soluble
- Solubility in cyclohexanone (Cyclohexanone): Soluble
- Solubility in ethyl acetate (Ethyl acetate): Soluble
- Solubility in THF: Soluble
- solubility at 18 h [1]: > 1000 µM
- solubility at 18 h [2]: > 1000 µM
- solubility at 18 h (Toluene, read-out: Solubility in toluene): < 1000 µM
